# Test results: ChEMBL document CHEMBL5584354, “Impact of Conjugation of the Reactive Oxygen Species (ROS)-Generating Catalytic Moiety with Membrane-Active Antimicrobial Peptoids: Promoting Multitarget Mechanism and Enhancing Selectivity” (J Med Chem, 2024)
# Non-standard residues stand in square brackets, D forms with d. Residues, ends and D or L forms follow the SMILES beside them. *: point of attachment. X3 = NC(=O)[C@H](Cc1c[nH]cn1)NC(=O)CNC(=O)[C@@H](N)CN(CCc1c[nH]c2ccccc12)*; X2 = C[C@@H](c1ccccc1)N(C[C@H](N)C(=O)NCC(=O)N[C@@H](Cc1c[nH]cn1)C(N)=O)*; Gly(N(CH2)2(3-indolyl)) = O=C(O)CNCCc1c[nH]c2ccccc12; Nspe = C[C@H](NCC(=O)O)c1ccccc1; Nphe = O=C(O)CNCc1ccccc1; Nlys = NCCCCNCC(=O)O
# Experiments:
# [1] = Hemolytic activity in male Sprague-Dawley rat erythrocytes assessed as concentration required for 50% hemolysis incubated for 1 hr by absorbance based method; assay type: toxicity, cell-based, Erythrocyte
# [2] = Selectivity index, ratio of HC10 for hemolytic activity in male Sprague-Dawley rat erythrocytes to MIC for antibacterial activity against Escherichia coli ATCC 25922; assay type: toxicity; conditions: read-out: Selectivity Index
# [3] = Hemolytic activity in male Sprague-Dawley rat erythrocytes at 100 uM incubated for 1 hr by absorbance based method relative to control; assay type: toxicity, cell-based, Erythrocyte; conditions: read-out: Activity
# Escherichia coli = assay: Antibacterial activity against Escherichia coli ATCC 25922 assessed as inhibition of bacterial growth incubated for 24 hrs by broth dilution method; assay type: functional
# Erythrocyte = assay: Hemolytic activity in male Sprague-Dawley rat erythrocytes assessed as concentration required for 10% hemolysis incubated for 1 hr by absorbance based method; assay type: toxicity, cell-based
# Staphylococcus aureus = assay: Antibacterial activity against Staphylococcus aureus ATCC 25923 assessed as inhibition of bacterial growth incubated for 24 hrs by broth dilution method; assay type: functional
# [4] = Hemolytic activity in male Sprague-Dawley rat erythrocytes at 25 uM incubated for 1 hr by absorbance based method relative to control; assay type: toxicity, cell-based, Erythrocyte; conditions: read-out: Activity
# [5] = Hemolytic activity in male Sprague-Dawley rat erythrocytes at 50 uM incubated for 1 hr by absorbance based method relative to control; assay type: toxicity, cell-based, Erythrocyte; conditions: read-out: Activity
Compound,MIC (Escherichia coli),MIC (Staphylococcus aureus),HC50 at 1 h [1],selectivity ratio [2],"hemolysis at 1 h, 100 µM [3]",HC10 (Erythrocyte),"hemolysis at 1 h, 25 µM [4]","hemolysis at 1 h, 50 µM [5]"
C[C@@H](c1ccccc1)N(CC(N)=O)C(=O)CN(CCCCN)C(=O)CN(Cc1ccccc1)C(=O)CN(Cc1ccccc1)C(=O)CN(CCCCN)C(=O)CN(C(=O)CN(C(=O)CN(CCCCN)C(=O)CN(Cc1ccccc1)C(=O)CN(Cc1ccccc1)C(=O)CN(CCCCN)C(=O)CNC(=O)[C@H](Cc1c[nH]cn1)NC(=O)CNC(=O)CN)[C@@H](C)c1ccccc1)[C@@H](C)c1ccccc1 (H-GGHG[Nlys][Nphe][Nphe][Nlys][Nspe][Nspe][Nlys][Nphe][Nphe][Nlys][Nspe]-NH2),25 µM,25 µM,> 100 µM,2.3,20.8%,58.4 µM,0.91%,6.84%
C[C@@H](c1ccccc1)N(CC(=O)N(CCCCN)CC(=O)N(CC(=O)N(CC(=O)N(CCCCN)CC(=O)N(CC(=O)N(CC(N)=O)Cc1ccccc1)Cc1ccccc1)[C@@H](C)c1ccccc1)[C@@H](C)c1ccccc1)C(=O)CN(C(=O)CN(CCCCN)C(=O)CN(Cc1ccccc1)C(=O)CN(Cc1ccccc1)C(=O)CNCCCCN)[C@@H](C)c1ccccc1 (H-[Nlys][Nphe][Nphe][Nlys][Nspe][Nspe][Nlys][Nspe][Nspe][Nlys][Nphe][Nphe]-NH2),6.3 µM,3.1 µM,83 µM,3.5,60.9%,22.3 µM,12.5%,29%
C[C@@H](c1ccccc1)N(CC(N)=O)C(=O)CN(CCCCN)C(=O)CN(CCCCN)C(=O)CN(C(=O)CN(C(=O)CN(CCCCN)C(=O)CN(C(=O)CN(C(=O)CN(CCCCN)C(=O)CN(CCc1c[nH]c2ccccc12)C(=O)CN(CCc1c[nH]c2ccccc12)C(=O)CNCCCCN)[C@@H](C)c1ccccc1)[C@@H](C)c1ccccc1)[C@@H](C)c1ccccc1)[C@@H](C)c1ccccc1,6.3 µM,3.1 µM,> 100 µM,13.5,11.1%,75.3 µM,4.95%,8.77%
C[C@@H](c1ccccc1)N(CC(=O)N(CCCCN)CC(=O)N(CC(=O)N(CC(=O)N(CCCCN)CC(=O)N(CC(=O)N(CC(=O)N(CCCCN)CC(=O)N(CC(=O)N(CC(N)=O)Cc1ccccc1)Cc1ccccc1)Cc1ccccc1)Cc1ccccc1)Cc1ccccc1)Cc1ccccc1)C(=O)CN(Cc1ccccc1)C(=O)CNCCCCN (H-[Nlys][Nphe][Nspe][Nlys][Nphe][Nphe][Nlys][Nphe][Nphe][Nlys][Nphe][Nphe]-NH2),12.5 µM,6.3 µM,> 100 µM,6.5,13.7%,81.3 µM,0.21%,3.75%

# The next lines start with results.
MIC (Escherichia coli),MIC (Staphylococcus aureus),Compound,HC50 at 1 h [1],selectivity ratio [2],"hemolysis at 1 h, 100 µM [3]",HC10 (Erythrocyte),"hemolysis at 1 h, 25 µM [4]","hemolysis at 1 h, 50 µM [5]"
6.3 µM,1.6 µM,C[C@@H](c1ccccc1)N(CC(N)=O)C(=O)CN(CCCCN)C(=O)CN(C(=O)CN(C(=O)CN(CCCCN)C(=O)CN(C(=O)CN(C(=O)CN(CCCCN)C(=O)CN(C(=O)CN(C(=O)CNCCCCN)[C@@H](C)c1ccccc1)[C@@H](C)c1ccccc1)[C@@H](C)c1ccccc1)[C@@H](C)c1ccccc1)[C@@H](C)c1ccccc1)[C@@H](C)c1ccccc1 (H-[Nlys][Nspe][Nspe][Nlys][Nspe][Nspe][Nlys][Nspe][Nspe][Nlys][Nspe]-NH2),28.3 µM,1.5,96.5%,9.64 µM,40.3%,97.6%
12.5 µM,6.3 µM,C[C@@H](c1ccccc1)N(CC(N)=O)C(=O)CN(CCCCN)C(=O)CN(C(=O)CN(C(=O)CN(CCCCN)C(=O)CN(C(=O)CN(C(=O)CN(CCCCN)C(=O)CN(C(=O)CN(C(=O)CN(CCCCN)C(=O)CNC(=O)[C@H](Cc1c[nH]cn1)NC(=O)CNC(=O)CN)[C@@H](C)c1ccccc1)[C@@H](C)c1ccccc1)[C@@H](C)c1ccccc1)[C@@H](C)c1ccccc1)[C@@H](C)c1ccccc1)[C@@H](C)c1ccccc1 (H-GGHG[Nlys][Nspe][Nspe][Nlys][Nspe][Nspe][Nlys][Nspe][Nspe][Nlys][Nspe]-NH2),100 µM,2.2,49.8%,27.7 µM,6.5%,22.4%
12.5 µM,6.3 µM,C[C@@H](c1ccccc1)N(CC(N)=O)C(=O)CN(CCCCN)C(=O)CN(C(=O)CN(C(=O)CN(CCCCN)C(=O)CN(C(=O)CN(C(=O)CN(CCCCN)C(=O)CN(C(=O)CN(C(=O)CN(CCCCN)C(=O)[C@H](Cc1c[nH]cn1)NC(=O)CNC(=O)CN)[C@@H](C)c1ccccc1)[C@@H](C)c1ccccc1)[C@@H](C)c1ccccc1)[C@@H](C)c1ccccc1)[C@@H](C)c1ccccc1)[C@@H](C)c1ccccc1 (H-GGH[Nlys][Nspe][Nspe][Nlys][Nspe][Nspe][Nlys][Nspe][Nspe][Nlys][Nspe]-NH2),81.6 µM,1.8,61.6%,22.9 µM,7.95%,32%
6.3 µM,1.6 µM,C[C@@H](c1ccccc1)N(CC(=O)N(CCCCN)CC(=O)N(CC(=O)N(CC(=O)N(CCCCN)CC(=O)N(CC(=O)N(CC(=O)N(CCCCN)CC(=O)N(CCc1c[nH]c2ccccc12)CC(=O)N(CCc1c[nH]c2ccccc12)C[C@H](N)C(=O)NCC(=O)N[C@@H](Cc1c[nH]cn1)C(N)=O)[C@@H](C)c1ccccc1)[C@@H](C)c1ccccc1)[C@@H](C)c1ccccc1)[C@@H](C)c1ccccc1)C(=O)CN(C(=O)CNCCCCN)[C@@H](C)c1ccccc1 (H-[Nlys][Nspe][Nspe][Nlys][Nspe][Nspe][Nlys][Nspe][Nspe][Nlys][Gly(N(CH2)2(3-indolyl))]-X3),> 100 µM,4,29%,25.4 µM,11.1%,20.3%
25 µM,3.1 µM,C[C@@H](c1ccccc1)N(CC(=O)N(CCCCN)CC(=O)N(CC(=O)N(CC(=O)N(CCCCN)CC(=O)N(CC(=O)N(C[C@H](N)C(=O)NCC(=O)N[C@@H](Cc1c[nH]cn1)C(N)=O)[C@@H](C)c1ccccc1)[C@@H](C)c1ccccc1)[C@@H](C)c1ccccc1)[C@@H](C)c1ccccc1)C(=O)CN(C(=O)CN(CCCCN)C(=O)CN(CCc1c[nH]c2ccccc12)C(=O)CN(CCc1c[nH]c2ccccc12)C(=O)CNCCCCN)[C@@H](C)c1ccccc1 (H-[Nlys][Gly(N(CH2)2(3-indolyl))][Gly(N(CH2)2(3-indolyl))][Nlys][Nspe][Nspe][Nlys][Nspe][Nspe][Nlys][Nspe]-X2),> 100 µM,1.2,23.8%,31.9 µM,8.35%,14%
